In patent US7906502B2, “2-azetidinone derivatives as cholesterol absorption inhibitors for the treatment of hyperlipidaemic conditions” (AstraZeneca AB, priority 2005, dated 2011):

Key:
[1] = Absorption in a Caco-2 cells model; format: in vitro ADME; settings: human
Description: Absorption of the compounds of formula (I) was tested in a Caco-2 cells model (Gastroenterology 1989, 96, 736): […]

[2] = system: 14C-cholesterol absorption; experiment: In vivo testing of cholesterol absorption inhibitors (A); design: species or system C57BL/6 female mice; settings: 0.2 μmol/kg, gavage, procedure A, mice
Description: In vivo Testing of Cholesterol Absorption Inhibitors (A)
C57BL/6 female mice were maintained on regular chow diet and housed in individual cages to collect faeces. Mice were fasted for 3 hours and then gavaged with vehicle or compound. Half an hour later the mice were gavaged with radiolabelled cholesterol. Six hours after the ^14C-cholesterol gavage blood samples were taken via the tail and plasma prepared to determine how much cholesterol were absorbed. 24 hours after the gavage of ^14C-cholesterol the mice were bled and plasma were prepared for analysis. Faeces were collected for 24 hours to assess absorption efficiency.

Row | SMILES | Papp [1] [×10⁻⁶ cm/s] | inhibition of 14C-cholesterol absorption [2] [%]
1 | O=C(COc1ccc([C@@H]2[C@@H](SCC(O)c3ccc4c(c3)OCO4)C(=O)N2c2ccc(F)cc2)cc1)NCC(=O)N[C@H](CC1CCCCC1)C(=O)O (single isomer, unassigned) [Example 13, N-({4-[(2R,3R)-3-{[(2R or S)-2-(1,3-benzodioxol-5-yl)-2-hydroxyethyl]thio}-1-(4-fluorophenyl)-4-oxoazetidin-2-yl]phenoxy}acetyl)glycyl-3-cyclohexyl-D-alanine] | 0.05 | 
2 | CC(C)(C)[C@@H](NC(=O)CNC(=O)COc1ccc([C@@H]2[C@@H](SCC(O)c3ccc4c(c3)OCCO4)C(=O)N2c2ccc(F)cc2)cc1)C(=O)O (stereo partly drawn) [Example 1, N-({4-[(2R,3R)-3-{[2-(2,3-dihydro-1,4-benzodioxin-6-yl)-2-hydroxyethyl]thio}-1-(4-fluorophenyl)-4-oxoazetidin-2-yl]phenoxy}acetyl)glycyl-3-methyl-D-valine] | 0.02 | 61
3 | CC(C)(C)[C@@H](NC(=O)CNC(=O)COc1ccc([C@@H]2[C@@H](SCC(O)c3ccc4c(c3)OCO4)C(=O)N2c2ccc(F)cc2)cc1)C(=O)O (stereo partly drawn) [Example 3, N-({4-[(2R,3R)-3-{[2-(1,3-Benzodioxol-5-yl)-2-hydroxyethyl]thio}-1-(4-fluorophenyl)-4-oxoazetidin-2-yl]phenoxy}acetyl)glycyl-3-methyl-D-valine] |  | 67
